This is an account of results in US12622919B2, “Methods for treating hypervirulent Klebsiella pneumoniae infection” (priority 2023, dated 2026).

Assay [1] deals with hvKp strain 17ZR101. The assay can be described thus: Bacteria burden in organs, 10^7 CFU hvKp. The following applies: 4 hpi. It counts as in vivo, C57BL6 mice. How it is done: Ten-fold dilutions of tissue homogenate were prepared and spread onto MacConkey agar plates containing 2 μg mL^−1 cefotaxime to determine the bacterial load in different organs of the infected animals. To determine the number of intracellular bacteria, cells prepared for flow cytometry from lungs and spleens were collected and then incubated with 300 μg mL^−1 amikacin to kill the extracellular bacteria. The number of total and intracellular bacteria was counted and presented as the number of CFU g^−1 tissue.
(§1) In ASA, NPXS, CTX, AzA, CsA, DXMS, and F-ara treatment experiment, mice challenged by 17ZR101 were given intraperitoneally 100 mg kg^−1 ASA, 50 mg kg^−1 NPXS, 150 mg kg^−1 CTX, 200 mg kg^−1 AzA, 20 mg kg^−1 CsA, 10 mg kg^−1 DXMS and 40 mg kg^−1 F-ara at 3 hpi, another group treated with an equal volume of PBS or 200 μL of corn oil solution was included as a control group. In ASA and CAZ/AVI combination treatment experiment, mice were given intraperitoneally 100 mg kg^−1 ASA plus 8 mg kg^−1 CAZ and 4 mg kg^−1 AVI or 8 mg kg^−1 CAZ and 4 mg kg^−1 AVI at 1 hpi. The health status and weight of all mice were observed and recorded.

The subject of assay [2] is hvKp strain 17ZR101. The assay can be described thus: Mouse sepsis model, ~10^4 CFU 17ZR101, drug at 3 hpi: survival, body weight, spleen weight. Format: in vivo, C57BL6 mice. How it is done: All animal experiments were approved by the Animal Ethics Committee of the City University of Hong Kong and followed the guidelines of the Institutional Laboratory Animal Research Unit. Six- to eight-weeks-old animals of both sexes were used in this study. For the sepsis model, mice were intravenously injected with ˜10^4 colony forming units (CFU) of the test stain resuspended in 200 μL PBS. For the pneumonia model, mice were anesthetized by inhaling isoflurane, and ˜10^6 CFU of the strain resuspended 10 μL PBS were dripped into the mouse's nasal cavity. The heads of the mice were hold upright for 30 s afterwards.
as §1

The test system of the next assay is IL-6. The assay can be described thus: Serum IL-6 by ELISA in 17ZR101-infected mice. It counts as in vivo, C57BL6 mice. Conditions: 17ZR101-infected mice treated with ASA; untreated 587.965. How it is done: (§2) The serum level of IL-6 of the test animals was measured by using the IL-6 Mouse Uncoated ELISA Kit (Thermo fisher scientific, 88-7064-88), IL-1β level by IL-1 beta Mouse Uncoated ELISA Kit (Thermo fisher scientific, 88-7013-86) and that of IFN-γ was measured by using the IFN gamma Mouse Uncoated ELISA Kit (Thermo fisher scientific, 88-7314-88) according to instructions of the manufacturer.
as §1
In general terms: An ELISA detects its analyte on a solid surface through an enzyme-linked reagent.

Assay [3] relates to Stat1 and STAT1-regulated chemokines, M1 markers, Cox-1, Cox-2. The assay can be described thus: RNA-Seq / qPCR of lung cells of 17ZR101-infected mice. Format: in vivo, C57BL6 mice. The procedure:
RNA was extracted from lung samples by homogenization in TRIzol reagent (15596026, Thermo Fisher Scientific), followed by chloroform extraction and isopropanol precipitation. The extracted RNA was reverse-transcribed into cDNA by using a SuperScript® III First-Strand Synthesis SuperMix kit (11752050, ThermoFisher Scientific). Real-time quantitative PCR was performed by using a QuantStudio™ 7 Pro Real-Time PCR System, following the manufacturer's instructions. cDNA samples were tested in duplicates, and the relative amount of mRNA in different samples (Gapdh, Il1b, Ifng, Cxcl2, Cxcl10, Ifna, Ifnb, Ifnar1, Stat1, Hmgb1, Il-6, Myd88, and Tlr4) was determined by the comparative threshold cycle (ΔΔCT) method, using the glyceraldehyde-3-phosphate dehydrogenase gene (Gapdh) for normalization.
Total RNA was extracted from lung samples by homogenization in TRIzol reagent, followed by chloroform extraction and isopropanol precipitation. DNA was removed by DNase treatment (TURBO DNA-Free™ Kit). RNA samples were sent to Novogene (HK) Company Limited for sequencing. Routine procedures of mRNA purification and library generation were performed by Novogene. Sequencing reads alignment was performed by using HISAT2. Count aligned reads and quantification were calculated based on exon regions using FeatureCounts. […] Gene Set Enrichment Analysis was performed for gene ontology enrichment analysis. The raw RNA-seq data has been deposited in NCBI database under the accession number PRJNA851242.
as §1
A general note: Real-time PCR tracks product formation cycle by cycle.

Assay [4] relates to F4/80+ cells and Ly6G+ cells in lungs. The assay can be described thus: Flow cytometry of lung cells at 4 hpi, 10^7 CFU hvKp. Format: in vivo, C57BL6 mice. How it is done: (§3) Cells collected from different tissues of the test animals were subjected to flow cytometry analysis as described previously^4. Cells from spleens were obtained by mashing the organ through a 70-μm cell strainer and collected in a tube containing RPMI 1640 medium supplemented with 5% fetal bovine serum. To prepare lung cells, lung tissues were excised and incubated in HBSS containing 1×HEPES and Collagenase type I. The tissue fragments were forced through a 70-μm strainer as described above. Red blood cells were lysed with ACK lysing buffer.
Dead cells were excluded from the analysis by propidium iodide (Sigma-Aldrich Corporation, P4170-1G) or ghost Dye™ violet 510 (Tonbo Biosciences, 13-0870-T100) staining in all flow cytometry experiments. […] The acquired data were analyzed by the FlowJo software (Version 10.0.7, Treestar, Palo Alto, CA).
(§4) In ASA, NPXS, CTX, AzA, CsA, DXMS, and F-ara treatment experiment, mice challenged by 17ZR101 were given intraperitoneally 100 mg kg^−1 ASA, 50 mg kg^−1 NPXS, 150 mg kg^−1 CTX, 200 mg kg^−1 AzA, 20 mg kg^−1 CsA, 10 mg kg^−1 DXMS and 40 mg kg^−1 F-ara at 3 hpi, another group treated with an equal volume of PBS or 200 μL of corn oil solution was included as a control group. […] The health status and weight of all mice were observed and recorded.
A general note: In flow cytometry, cells or beads pass a laser one at a time.

Assay [5] deals with F4/80+ cells (IMs), neutrophils in lungs. The assay can be described thus: Flow cytometry of lung cells, 10^4 CFU 17ZR101 sepsis model. Format: in vivo, C57BL6 mice. The following applies: ASA at 3 hpi. The procedure:
as §3
Dead cells were excluded from the analysis by propidium iodide (Sigma-Aldrich Corporation, P4170-1G) or ghost Dye™ violet 510 (Tonbo Biosciences, 13-0870-T100) staining in all flow cytometry experiments. Fluorescently labeled mAbs against mouse CD45, CD11b, CD206, CD80, Ly6G, CD11c, SiglecF, Ly6C and appropriate isotype controls were obtained from Biolegend. For intracellular cytokine measurement, cells were incubated with Cell Activation Cocktail (BioLegend, 423303) at 37° C. in the dark for 4 h. Anti-IFN-γ-PE antibody (eBioscience, 12-7177-81) was used to determine intracellular expression of IFN-γ. For p-STAT1 measurement, the cells were fixed with IC fixation buffer (eBioscience, 00-8222-49) for 30 min and then suspended in 1 mL of methanol to permeabilize the cell membrane, left to stand for 10 min on ice. At the time of p-STAT1 measurement, the cell suspensions were washed with FACS buffer and then stained with PE-anti-STAT1 Phospho antibody (Biolegend, 686404). […] The acquired data were analyzed by the FlowJo software (Version 10.0.7, Treestar, Palo Alto, CA).
as §4

Another assay relates to IFN-γ. The assay can be described thus: Serum IFN-γ by ELISA in 17ZR101-infected mice. Format: in vivo, C57BL6 mice. The following applies: 17ZR101-infected mice treated with F-ara; untreated 2742.872. How it is done:
as §2, §1

Assay [6] has as its system K. pneumoniae strain 17ZR101 (K2 hvKp clinical strain). The assay can be described thus: Antibiotic susceptibility test (microdilution), strain 17ZR101. Format: cell-based, Klebsiella pneumoniae. The following applies: CLSI. How it is done: (§5) The antimicrobial susceptibility of the two Klebsiella strains was determined by the microdilution method according to the guidelines recommended by the Clinical and Laboratory Standards Institute^2. Escherichia coli strain ATCC 25922 was included as a quality control strain. All tests were performed in duplicate, and each test included three biological replicates.

The subject of assay [7] is K. pneumoniae strain HKU1 (clinical cKp strain). The assay can be described thus: Antibiotic susceptibility test (microdilution), strain HKU1. Format: cell-based, Klebsiella pneumoniae. Conditions: CLSI. The procedure:
as §5

Where [8] appears, read: RNA-Seq lung cells, 17ZR101+ASA vs 17ZR101, unit not given.

`CC(=O)Oc1ccccc1C(=O)O` [ASA, acetylsalicylic acid]: in the assay with hvKp strain 17ZR101 [1], the “bacteria burden in various organs” value is given as “without contributing to bacteria clearance”. The spleen/body weight ratio in the assay with hvKp strain 17ZR101 [2] (12 hpi, ASA 100 mg kg^−1 i.p. at 3 hpi, untreated 0.863%) is given as 0.495%. For the same compound, in the assay on hvKp strain 17ZR101 [2] (12 hpi, ASA 100 mg kg^−1 i.p. at 3 hpi, untreated 7.206%), the bodyweight loss is reported as 2.076%. For the same compound, in the assay with hvKp strain 17ZR101 [2] (17ZR101 infection, 100 mg kg^−1 ASA i.p. at 3 hpi, at 48 hpi), the “mice protected (survival)” value amounted to 100%. Moreover, the “serum IL-6 production” value with IL-6 turned out to be 57.964 pg/mL. The “expression level of M1 macrophage markers” value in [3] (RNA-Seq and qPCR, lung cells, ASA) is recorded as “decrease in expression level of M1 macrophage markers”. For the same compound, in assay [3] (setting [8]), the Cxcl9 expression change is recorded as −2.118, the Cxcl10 expression change is reported as −3.590 and the Cxcl11 expression change is −2.098. Further, the Stat1 expression change in assay [3] (RNA-Seq lung cells, 17ZR101+ASA vs 17ZR101, unit not printed here (Log 2 fold change)) is on record as −1.056. In addition, in [3] (upon ASA administration), the “Cox-1 and Cox-2 expression at the mRNA level” value is on record as “no significant difference”. In [4], the “F4/80+ cells infiltration in lungs” value is “could suppress F4/80^+ cells infiltration” and the “Ly6G+ cells in lungs” value is reported as “not significantly”. For the same compound, in assay [5], the “F4/80+ cells infiltration into the lungs” value was “suppressed F4/80^+ cells infiltration into the lungs” and the “levels of neutrophils in the lungs” value is given as “slight decrease”. For the same compound, in [5] (CD80 MFI), the M1 macrophage polarization entry is reported as “able to inhibit M1 macrophage polarization”.

In the case of `Nc1nc(F)nc2c1ncn2[C@@H]1O[C@H](CO)[C@@H](O)[C@@H]1O` [F-ara, Fludarabine], in the assay with IFN-γ, the “serum IFN-γ level” value stood at 445.133 pg/mL. The “mice protected from death” value in the assay with hvKp strain 17ZR101 [2] (17ZR101 infection, 40 mg kg^−1 F-ara i.p. at 3 hpi, within 48 h) is recorded as 50%.

With `NCC[C@H](O)C(=O)N[C@@H]1C[C@H](N)[C@@H](O[C@H]2O[C@H](CN)[C@@H](O)[C@H](O)[C@H]2O)[C@H](O)[C@H]1O[C@H]1O[C@H](CO)[C@@H](O)[C@H](N)[C@H]1O` [amikacin], the antimicrobial susceptibility result in [6] and in [7] was “susceptible” in each case.

As to `CO/N=C(\C(=O)N[C@@H]1C(=O)N2C(C(=O)O)=C(COC(C)=O)CS[C@H]12)c1csc(N)n1` [cefotaxime], the antimicrobial susceptibility entry in assay [6] and in [7] was “resistant” each time.

On to `CC(C)(O/N=C(\C(=O)N[C@@H]1C(=O)N2C(C(=O)[O-])=C(C[n+]3ccccc3)CS[C@H]12)c1csc(N)n1)C(=O)O` [ceftazidime], for which the antimicrobial susceptibility result in [6] and in assay [7] was “resistant” throughout.

On to `O=P1(N(CCCl)CCCl)NCCCO1` (stereo not shown) [cyclophosphamide], for which, in the assay with hvKp strain 17ZR101 [2] (17ZR101 infection, 150 mg kg^−1 CTX i.p. at 3 hpi), the “protective effect (survival)” value was “did not exhibit any protective effect”.

On to `C[C@@H](O)[C@H]1C(=O)N2C(C(=O)O)=C(S[C@@H]3CN[C@H](C(=O)N(C)C)C3)[C@H](C)[C@H]12` [meropenem], for which the antimicrobial susceptibility entry in assay [6] and in [7] was “resistant” throughout.

Consider `CN(C)c1cc(NC(=O)CNC(C)(C)C)c(O)c2c1C[C@H]1C[C@H]3[C@H](N(C)C)C(O)=C(C(N)=O)C(=O)[C@@]3(O)C(O)=C1C2=O` [tigecycline], for which the antimicrobial susceptibility result in [6] and in assay [7] was “susceptible” each time.

As for polymyxin B, the antimicrobial susceptibility entry in assay [6] and in [7] was “susceptible” in each case.
